Values after ≈ are worked out from the molar mass of the structure shown. Numbered stars: 1 amine (or outer) side, 2 acyl side, 3 side chain; on linkers, the order of the positions; unused ones are H or OH. Square brackets hold non-standard residues; d marks the D form. Peptide text beside a SMILES is read from it. * marks the point of attachment. X2 = CCC(=O)C[C@H](O)C[C@@H](C)C[C@H](N[*:1])C(=O)[*:2]; Leu(3R-OH) = CC(C)[C@@H](O)[C@H](N)C(=O)O; NH((S)CH(Me)CH2NMe2) = C[C@@H](CN(C)C)N*; X3 = CC(C)C[C@@H](CN1CCC[N+]2=C1CCC2)N*; Pro(4S-Me) = C[C@@H]1CN[C@H](C(=O)O)C1; X1 = CC[C@@H](C)/C=C/C(=O)*; Pip = O=C(O)[C@@H]1CCCCN1; Iva = CC[C@](C)(N)C(=O)O; Aib = CC(C)(N)C(=O)O; βAla = NCCC(=O)O Some results are limits rather than exact numbers.

The nature of series [1]: Antiproliferative activity against human Keratinocyte assessed as inhibition of cell proliferation incubated for 2 days by Beckman Coulter analysis. The following applies: 48 h. Format: functional, cell-based.
The nature of series [2]: Inhibition of bovine heart mitochondrial F0F1-ATP synthase F0 domain assessed as reduction in rate of NADH oxidation for 30 mins by colorimetric assay. Format: mitochondria, Bos taurus, Mitochondria.
The subject of series [3] is DU-145. Briefly: Antiproliferative activity against human DU-145 cells assessed as reduction in cell viability incubated for 3 days by rhodanile-blue dye based microplate reader analysis. The class given is functional. The note with it: DU-145, 72 h.
The nature of series [4]: Acute toxicity in mouse assessed as maximum tolerated dose. The note with it: in vivo.
The subject of series [5] is DU-145. Briefly: Antiproliferative activity against human DU-145 cells assessed as reduction in cell viability preincubated with PrSCs cells for 2 days followed by co-culture with DU-145 for 3 days by rhodanile-blue dye based microplate reader analysis. Format: functional.
In a further series the test system is SNU-398. Briefly: Anticancer activity against human SNU-398 cells expressing high level of SALL4 assessed as reduction in cell viability incubated for 72 hrs by CellTiter-Glo assay. The class given is functional, cell-based. The following applies: SNU-398, 72 h. (In general: ATP-based viability assays read luminescence as a measure of living cells.)
The nature of series [6]: Inhibition of mouse liver mitochondrial ATP synthase by microplate immuno-capture ELISA assay. Format: mitochondria, Mitochondria.
A further series deals with HL-60. Briefly: Anticancer activity against human HL-60 cells assessed inhibition of cell proliferation incubated for 48 hrs by MTT assay. The following applies: HL-60, 48 h. The class given is functional, cell-based.
The next series has as its system HeLa. Briefly: Antiproliferative activity against human HeLa cells assessed as reduction in cell viability by MTT assay. The class given is functional, cell-based. In general terms: Tetrazolium dyes change colour on reduction, which living cells bring about.
A further series concerns NCI-H292. Briefly: Antiproliferative activity against human NCI-H292 cells assessed as reduction in cell viability by MTT assay. The class given is functional, cell-based.
The subject of series [7] is HCT-116. Briefly: Antitumor activity against human HCT-116 cells assessed as reduction in cell viability incubated for 72 hrs by MTT assay. The note with it: HCT-116, 72 h. The class given is functional, cell-based.
In series [8] the test system is K562. Briefly: Antitumor activity against human K562 cells assessed as reduction in cell viability incubated for 72 hrs by MTT assay. The class given is functional, cell-based. The note with it: K562, 72 h.
The test system of series [9] is HCT-116. Briefly: Antiproliferative activity against human HCT-116 cells assessed as reduction in cell viability incubated for 72 hrs by MTT assay. The class given is functional, cell-based. The following applies: HCT-116, 72 h.
Series [10] relates to K562. Briefly: Antiproliferative activity against human K562 cells assessed as reduction in cell viability incubated for 72 hrs by MTT assay. Format: functional, cell-based. The note with it: K562, 72 h.
The subject of another series is MCF7. Briefly: Antitumor activity against human MCF7 cells assessed as reduction in cell viability incubated for 24 hrs by MTT assay. Format: functional, cell-based. The following applies: MCF7, 24 h.
The subject of another series is P388. Briefly: Anticancer activity against mouse P388 cells assessed as reduction in cell viability incubated for 96 hrs by MTT assay. The following applies: P388, 96 h. Format: functional, cell-based.

By EC50 is commonly meant the midpoint of the concentration-response curve. As for `CN1C(=O)C(Cc2ccccc2-c2ccccc2)N=C(c2ccc(O)cc2)c2cc(Cl)ccc21` (centres undefined), in [1], the EC50 turned out to be 2200 nM.
In general, IC50 refers to the point on the concentration scale where inhibition reaches its midpoint. In general, MTD refers to the highest dose tested that stayed within the study's limit of toxicity. For the molecule `CC[C@@H](C)/C=C/C(=O)N1C[C@@H](C)C[C@H]1C(=O)N[C@@H](C)C(=O)N[C@H](C(=O)NC(C)(C)C(=O)N[C@@H](CC(C)C)C(=O)N[C@@H](CC(C)C)C(=O)NC(C)(C)C(=O)NC(C)(C)C(=O)NCCC(=O)N[C@@H](C)CN(C)C)[C@H](O)C(C)C` (X1-[Pro(4S-Me)]A[Leu(3R-OH)][Aib]LL[Aib][Aib][βAla]-{NH((S)CH(Me)CH2NMe2)}), the values for the IC50 (in series [2]; in the series on DU-145 [3]; with DU-145 [5]) were 2.8 µg/mL (≈ 2.6 µM), more than 1 µg/mL and 0.21 µg/mL (≈ 0.195 µM), respectively. Also, the MTD in series [4] was found to be 12.5 mg/kg.
For `CC[C@](C)(NC(=O)[C@H](CC(C)C)NC(=O)[C@H](C)NC(=O)C(C)(C)NC(=O)[C@@H]1CCCCN1C(=O)C(C)(C)NC(=O)C(C)(C)NC(=O)CNC(=O)CCNC(=O)[C@H](CC(C)C)NC(=O)[C@](C)(CC)NC(=O)[C@](C)(CC)NC(=O)[C@@H]1CCCCN1C(=O)C(C)(C)NC(=O)[C@@H]1CCCCN1C(C)=O)C(=O)N[C@@H](CC(C)C)CN1CCC[N+]2=C1CCC2` (Ac-[Pip][Aib][Pip][Iva][Iva]L[βAla]G[Aib][Aib][Pip][Aib]AL[Iva]-X3), the IC50 with SNU-398 came out at 6 nM.
Take `c1csc(-c2c3ccc(=[N+]4CCCCC4)cc-3oc3cc(N4CCCCC4)ccc23)c1`: the results for the IC50 (in [6]; in the series on HL-60) were 3000 nM and 100 nM, respectively.
Take `CCC(=O)C[C@H](O)C[C@@H](C)C[C@H](NC(=O)[C@@H]1C[C@H](C)CN1C(=O)/C=C/[C@H](C)CC)C(=O)N[C@H](C(=O)NC(C)(C)C(=O)N[C@@H](CC(C)C)C(=O)N[C@@H](CC(C)C)C(=O)NC(C)(C)C(=O)NC(C)(C)C(=O)NCCC(=O)N[C@@H](C)CN(C)C)[C@H](O)C(C)C` (X1-[Pro(4S-Me)][X2][Leu(3R-OH)][Aib]LL[Aib][Aib][βAla]-{NH((S)CH(Me)CH2NMe2)}): the values for the concentration for half-maximal inhibition (IC50) (in series [2]; with DU-145 [3]; in the series on DU-145 [5]) were 2.8 µg/mL (≈ 2.3 µM), more than 1 µg/mL and 0.045 µg/mL (≈ 0.0369 µM), respectively. The MTD in series [4] worked out at 2.5 mg/kg.
On to `COC[C@@H](C[C@H]1O[C@@](O)([C@H](O)[C@@H]2C[C@H](OC)[C@@H](O)CC/C=C(C)/C=C/[C@@H](O[C@@H]3O[C@@H](C)[C@H](OC)[C@@H](O)[C@@H]3OC(=O)CCC(=O)O)[C@H](C)/C=C(C)/C=C(C)/C=C(\C)C(=O)O2)[C@H](C)[C@@H](O)[C@H]1C)O[C@H]1C[C@](C)(O)[C@@H](O[C@H]2C[C@@H](OC)[C@H](O)[C@@H](C)O2)[C@H](C)O1`, for which the 50% inhibitory concentration (IC50) in the series with HeLa is 240 nM; in the series on NCI-H292, 91 nM.
`CC[C@H]1/C=C/C=C/C[C@@H](C)[C@H](O)[C@@](C)(O)C(=O)[C@@H](C)[C@H](O)[C@@H](C)C(=O)[C@@H](C)[C@H](O)[C@@H](C)/C=C/C(=O)O[C@@H]2[C@H](C)[C@H](CC1)O[C@]1(CC[C@H](C)[C@H](C[C@@H](C)O)O1)[C@H]2C` [OLIGOMYCIN]: the 50% inhibitory concentration (IC50) was 1000 nM in the series with HCT-116 [7], 200 nM in the series with K562 [8], 900 nM in the series on HCT-116 [9] and 200 nM with K562 [10].
Consider `O=C(Oc1cc(/C=C/c2ccc(O)cc2)cc(OC(=O)c2ccco2)c1)c1ccco1`, for which the IC50 in the series on MCF7 was 42700 nM.
For `CC/C(C)=C(\NC(=O)[C@@H](NC(=O)CC(=O)[C@@H](C)CC(C)C)[C@](C)(O)CC)C(=O)NCC(=O)N/C(C(=O)N[C@@H](C(=O)N[C@@H](C(=O)N[C@@H](C(=O)N[C@H](C(=O)N/C(C(=O)N[C@H](C)C(=O)N[C@@H](C(=O)N[C@H](C(=O)NC(C(=O)N[C@H](CN(C)C)C(C)C)=C(C)C)C(C)C)C(C)C)=C(\C)CC)C(C)(C)O)C(C)(C)O)[C@@H](C)CC)C(C)C)=C(\C)CC`, the IC50 with P388 worked out at 0.88 nM.
Take `Ic1ccc(-c2c3ccc(=[N+]4CCCCC4)cc-3oc3cc(N4CCCCC4)ccc23)cc1`: the figures for the IC50 (in [6]; in the series on HL-60) were 3900 nM and 100 nM, respectively.
For the molecule `Oc1ccc(/C=C/c2cc(O)cc(O)c2)cc1` [RESVERATROL], the IC50 in the series on MCF7 was determined as 80000 nM.
`CN1C(=O)C(Cc2ccc3ccccc3c2)N=C(c2ccc3[nH]c(=O)[nH]c3c2)c2cc(Cl)ccc21` (centres undefined): the EC50 in series [1] was determined as 2100 nM.

Values taken from ChEMBL document CHEMBL5230122, “Natural products and other inhibitors of F1FO ATP synthase” (Eur J Med Chem, 2020).
